The target in one assay is T1, glucokinase (GK) enzyme (Homo sapiens, UniProt P35557).
T1 sequence (P35557 1-465): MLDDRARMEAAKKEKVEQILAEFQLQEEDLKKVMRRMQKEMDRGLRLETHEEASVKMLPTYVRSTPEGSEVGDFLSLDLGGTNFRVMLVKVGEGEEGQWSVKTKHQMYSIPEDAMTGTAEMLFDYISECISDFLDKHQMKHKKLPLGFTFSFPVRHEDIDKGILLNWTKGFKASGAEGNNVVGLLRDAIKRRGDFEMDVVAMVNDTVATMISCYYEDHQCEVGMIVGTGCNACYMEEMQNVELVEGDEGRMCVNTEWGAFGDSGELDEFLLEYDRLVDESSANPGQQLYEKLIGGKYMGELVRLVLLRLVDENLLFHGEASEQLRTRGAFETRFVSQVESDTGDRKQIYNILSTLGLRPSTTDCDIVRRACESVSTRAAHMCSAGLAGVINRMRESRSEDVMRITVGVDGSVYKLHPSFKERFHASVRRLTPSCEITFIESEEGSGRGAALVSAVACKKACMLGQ
Nature of the assay: In-vitro glucokinase (GK) activation assay (coupled with glucose-6-phosphate dehydrogenase, absorbance at 340). The format is biochemical. The note with it: glucose 2.5 mM; for activity at 0.1 µM / activity at 1 µM / activity at 5 µM / activity at 10 µM: read-out: % of GK activity wrt DMSO; for EC50: GK enzyme 0.2 units, ATP 1 mM. Here is the method:
The compound of the invention was incubated with glucokinase (GK) enzyme (0.2 units) for 10 minutes in assay buffer at 26° C. After incubation, addition of glucose-6-phosphate dehydrogenase (2.5 units), ATP (1 mM) and glucose (2.5 mM). Absorbance is measured at 340 nm for 15 minutes with 10 second interval using UV transparent plate in kinetic mode on Spectramax-190 at 30° C.

A further assay concerns Male C57 mice. In words: Oral glucose tolerance test (OGTT), overnight fasted. The format is in vivo. To be noted: for % change in glucose levels Vs Control: treated at −30 min, oral glucose load 3 g/kg at 0 min; for % change in glucose levels Vs Control, Mean: Mean over the time points, oral glucose load 3 g/kg. Here is the method:
Effect of Glucokinase Activators (GKAs) of the Present Invention on Glucose Reduction Determined by Oral Glucose Tolerence Test (OGTT):
Male C57 mice, aged 8-10 weeks were fasted overnight and subjected to the treatment of selected GK activator at time denoted as −30 min. At time 0 min, mice were given oral glucose load of 3 g/kg, and the glucose excursion was observed upto 120 min. The percentage change against the change in glucose levels of control are mentioned in the table 2.

As to `Cc1nnc(-c2ccc(Oc3cc(OC4CCN(C)C4=O)cc(C(=O)Nc4nccs4)c3)cc2)o1` (stereo not drawn) [Example 1, 3-(4-(5-Methyl-1,3,4-oxadiazol-2-yl)phenoxy)-5-(1-methyl-2-oxopyrrolidin-3-yloxy)-N-(thiazol-2-yl)benzamide], the activity at 0.1 µM at glucokinase (GK) enzyme (0.1 uM compound) came out at 276%. In addition, the activity at 1 µM on glucokinase (GK) enzyme (1 uM compound) turned out to be 309%. Also, at glucokinase (GK) enzyme (5 uM compound), the activity at 5 µM came to 316%. Also, the activity at 10 µM on glucokinase (GK) enzyme (10 uM compound) was found to be 309%. For the same compound, it took 21 nM to reach a half-maximal effect on glucokinase (GK) enzyme (EC50). In addition, the “% change in glucose levels Vs Control” value in the assay with Male C57 mice (0 min Vs −30 min) is recorded as −32.7 ± 2.8%; with Male C57 mice (30 min Vs −30 min), 3.3 ± 9.7%; in the assay on Male C57 mice (60 min Vs −30 min), −39.5 ± 7.0%; in the assay on Male C57 mice (120 min Vs −30 min), −24.3 ± 9.0%. Further, in the assay with Male C57 mice, the “% change in glucose levels Vs Control, Mean” value (“% change … Mean” for short) is −23.3%.

Consider `Cc1nnc(-c2ccc(Oc3cc(OC4CCN(C)C4=O)cc(C(=O)Nc4ncc(C)s4)c3)cc2)o1` (stereo not drawn) [Example 2, 3-(4-(5-Methyl-1,3,4-oxadiazol-2-yl)phenoxy)-5-(1-methyl-2-oxopyrrolidin-3-yloxy)-N-(5-methylthiazol-2-yl)benzamide], for which, at glucokinase (GK) enzyme (0.1 uM compound), the activity at 0.1 µM came out at 205%. Also, the activity at 1 µM on glucokinase (GK) enzyme (1 uM compound) came to 227%. For the same compound, at glucokinase (GK) enzyme (5 uM compound), the activity at 5 µM is 233%. In addition, at glucokinase (GK) enzyme (10 uM compound), the activity at 10 µM stood at 236%. For the same compound, it took 40 nM to reach a half-maximal effect at glucokinase (GK) enzyme (EC50). Also, the “% change in glucose levels Vs Control” value is −34.5 ± 3.2% in the assay on Male C57 mice (0 min Vs −30 min), −13.5 ± 8.8% in the assay on Male C57 mice (30 min Vs −30 min), −49.6 ± 11.2% in the assay with Male C57 mice (60 min Vs −30 min) and −53.2 ± 3.1% in the assay with Male C57 mice (120 min Vs −30 min). The “% change … Mean” value in the assay on Male C57 mice was −37.7%.

In the case of `CCOC(=O)Cc1csc(NC(=O)c2cc(Oc3ccc(-c4nnc(C)o4)cc3)cc(OC3CCN(C)C3=O)c2)n1` (stereo not drawn) [Example 3], the activity at 0.1 µM at glucokinase (GK) enzyme (0.1 uM compound) was determined as 186%. The activity at 1 µM at glucokinase (GK) enzyme (1 uM compound) was determined as 284%. In addition, the activity at 5 µM at glucokinase (GK) enzyme (5 uM compound) stood at 312%. Moreover, the activity at 10 µM on glucokinase (GK) enzyme (10 uM compound) worked out at 316%. This compound also gave an EC50 on glucokinase (GK) enzyme of 196 nM. For the same compound, the “% change in glucose levels Vs Control” value is −18.8 ± 5.8% with Male C57 mice (0 min Vs −30 min), −4.1 ± 6.0% in the assay with Male C57 mice (30 min Vs −30 min), −3.9 ± 4.3% in the assay on Male C57 mice (60 min Vs −30 min) and −15.8 ± 3.7% in the assay on Male C57 mice (120 min Vs −30 min). Moreover, in the assay on Male C57 mice, the “% change … Mean” value is given as −10.6%.

As to `Cc1nnc(-c2ccc(Oc3cc(OC4CCN(C)C4=O)cc(C(=O)Nc4nc(CC(=O)O)cs4)c3)cc2)o1` (stereo not drawn) [Example 4, 2-(2-(3-(4-(5-Methyl-1,3,4-oxadiazol-2-yl)phenoxy)-5-((1-methyl-2-oxopyrrolidin-3-yl)oxy)benzamido)thiazol-4-yl)acetic acid], the activity at 0.1 µM on glucokinase (GK) enzyme (0.1 uM compound) was 148%. Besides, the activity at 1 µM at glucokinase (GK) enzyme (1 uM compound) was 273%. For the same compound, on glucokinase (GK) enzyme (5 uM compound), the activity at 5 µM worked out at 330%. The activity at 10 µM at glucokinase (GK) enzyme (10 uM compound) came to 322%. The same compound registered an EC50 on glucokinase (GK) enzyme of 320 nM. The “% change in glucose levels Vs Control” value in the assay with Male C57 mice (0 min Vs −30 min) is reported as −23.3 ± 3.1%; with Male C57 mice (30 min Vs −30 min), −22.1 ± 6.1%; with Male C57 mice (60 min Vs −30 min) it was −21.8 ± 5.9%; in the assay on Male C57 mice (120 min Vs −30 min) it was −16.7 ± 5.9%. Besides, the “% change … Mean” value with Male C57 mice was −21.0%.

For `Cc1csc(NC(=O)c2cc(Oc3ccc(-c4nnc(C)o4)cc3)cc(OC3CCN(C)C3=O)c2)n1` (stereo not drawn) [Example 13, 3-(4-(5-Methyl-1,3,4-oxadiazol-2-yl)phenoxy)-5-(1-methyl-2-oxopyrrolidin-3-yloxy)-N-(4-methylthiazol-2-yl)benzamide], the activity at 0.1 µM on glucokinase (GK) enzyme (0.1 uM compound) stood at 234%. The activity at 1 µM at glucokinase (GK) enzyme (1 uM compound) came out at 302%. On glucokinase (GK) enzyme (5 uM compound), the activity at 5 µM came to 320%. In addition, at glucokinase (GK) enzyme (10 uM compound), the activity at 10 µM amounted to 318%. The response on glucokinase (GK) enzyme was half-maximal at 74 nM (EC50). The “% change in glucose levels Vs Control” value with Male C57 mice (0 min Vs −30 min) is −38.7 ± 3.5%; in the assay with Male C57 mice (30 min Vs −30 min), −34.5 ± 9.3%; with Male C57 mice (60 min Vs −30 min) it was −48.2 ± 7.5%; in the assay with Male C57 mice (120 min Vs −30 min), −60.5 ± 4.5%. In addition, the “% change … Mean” value in the assay on Male C57 mice is −45.5%.

With `Cc1csc(NC(=O)c2cc(Oc3ccc(-c4nnc(C5CC5)o4)cc3)cc(OC3CCN(C)C3=O)c2)n1` (stereo not drawn) [Example 33, 3-(4-(5-Cyclopropyl-1,3,4-oxadiazol-2-yl)phenoxy)-5-((1-methyl-2-oxopyrrolidin-3-yl)oxy)-N-(4-methylthiazol-2-yl)benzamide], the activity at 0.1 µM on glucokinase (GK) enzyme (0.1 uM compound) was 201%. Besides, the activity at 1 µM at glucokinase (GK) enzyme (1 uM compound) amounted to 309%. For the same compound, on glucokinase (GK) enzyme (5 uM compound), the activity at 5 µM came to 383%. Also, the activity at 10 µM at glucokinase (GK) enzyme (10 uM compound) worked out at 375%.

For `CN1CCC(Oc2cc(Oc3ccc(-c4nnc(-c5ccccc5)o4)cc3)cc(C(=O)Nc3nccs3)c2)C1=O` (stereo not drawn) [Example 34, 3((1-Methyl-2-oxopyrrolidin-3-yl)oxy)-5-(4-(5-phenyl-1,3,4-oxadiazol-2-yl)phenoxy)-N-(thiazol-2-yl)benzamide], the activity at 0.1 µM on glucokinase (GK) enzyme (0.1 uM compound) is 182%. Moreover, the activity at 1 µM at glucokinase (GK) enzyme (1 uM compound) was 350%. Moreover, the activity at 5 µM on glucokinase (GK) enzyme (5 uM compound) is 396%. For the same compound, the activity at 10 µM on glucokinase (GK) enzyme (10 uM compound) was found to be 337%.

As to `CCN1CCC(Oc2cc(Oc3ccc(-c4nnc(C)o4)cc3)cc(C(=O)Nc3nccs3)c2)C1=O` (stereo not drawn) [Example 35, 3((1-Ethyl-2-oxopyrrolidin-3-yl)oxy)-5-(4-(5-methyl-1,3,4-oxadiazol-2-yl)phenoxy)-N-(thiazol-2-yl)benzamide], the activity at 0.1 µM at glucokinase (GK) enzyme (0.1 uM compound) worked out at 181%. Besides, at glucokinase (GK) enzyme (1 uM compound), the activity at 1 µM came to 322%. Moreover, the activity at 5 µM at glucokinase (GK) enzyme (5 uM compound) stood at 382%. The activity at 10 µM on glucokinase (GK) enzyme (10 uM compound) worked out at 366%.

In the case of `Cc1nnc(-c2ccc(Oc3cc(OC4CCN(C5CCCCC5)C4=O)cc(C(=O)Nc4nccs4)c3)cc2)o1` (stereo not drawn) [Example 36, 3((1-Cyclohexyl-2-oxopyrrolidin-3-yl)oxy)-5-(4-(5-methyl-1,3,4-oxadiazol-2-yl)phenoxy)-N-(thiazol-2-yl)benzamide], the activity at 0.1 µM on glucokinase (GK) enzyme (0.1 uM compound) came out at 133%. In addition, the activity at 1 µM on glucokinase (GK) enzyme (1 uM compound) was determined as 177%. For the same compound, the activity at 5 µM at glucokinase (GK) enzyme (5 uM compound) came to 254%. For the same compound, the activity at 10 µM at glucokinase (GK) enzyme (10 uM compound) came to 225%.

Consider `Cc1nnc(-c2ccc(Oc3cc(OC4CCN(C)C4=O)cc(C(=O)Nc4nc(-c5ccccc5)cs4)c3)cc2)o1` (stereo not drawn) [Example 37, 3-(4-(5-Methyl-1,3,4-oxadiazol-2-yl)phenoxy)-5-((1-methyl-2-oxopyrrolidin-3-yl)oxy)-N-(4-phenylthiazol-2-yl)benzamide], for which the activity at 0.1 µM at glucokinase (GK) enzyme (0.1 uM compound) was 107%. Further, the activity at 1 µM at glucokinase (GK) enzyme (1 uM compound) turned out to be 151%. For the same compound, the activity at 5 µM on glucokinase (GK) enzyme (5 uM compound) is 290%. For the same compound, the activity at 10 µM at glucokinase (GK) enzyme (10 uM compound) amounted to 329%. The “% change in glucose levels Vs Control” value with Male C57 mice (0 min Vs −30 min) is on record as 11.9 ± 8.2%; in the assay on Male C57 mice (30 min Vs −30 min), −26.5 ± 12.8%; in the assay on Male C57 mice (60 min Vs −30 min), −43.5 ± 3.8%; in the assay with Male C57 mice (120 min Vs −30 min), −24.9 ± 5.3%. The “% change … Mean” value in the assay on Male C57 mice is reported as −17.0%.

Take `Cc1nnc(-c2ccc(Oc3cc(OC4CCN(C)C4=O)cc(C(=O)Nc4ncc(Br)s4)c3)cc2)o1` (stereo not drawn) [Example 38, N-(5-Bromothiazol-2-yl)-3-(4-(5-methyl-1,3,4-oxadiazol-2-yl)phenoxy)-5-((1-methyl-2-oxopyrrolidin-3-yl)oxy)benzamide]: the activity at 0.1 µM on glucokinase (GK) enzyme (0.1 uM compound) is 150%. Besides, on glucokinase (GK) enzyme (1 uM compound), the activity at 1 µM came out at 205%. Moreover, the activity at 5 µM on glucokinase (GK) enzyme (5 uM compound) came out at 252%. Further, the activity at 10 µM on glucokinase (GK) enzyme (10 uM compound) stood at 256%.

As to `Cc1nnc(-c2ccc(Oc3cc(OC4CCN(C)C4=O)cc(C(=O)Nc4ncccc4O)c3)cc2)o1` (stereo not drawn) [Example 39, N-(3-hydroxypyridin-2-yl)-3-(4-(5-methyl-1,3,4-oxadiazol-2-yl)phenoxy)-5-((1-methyl-2-oxopyrrolidin-3-yl)oxy)benzamide], the activity at 0.1 µM on glucokinase (GK) enzyme (0.1 uM compound) worked out at 151%. For the same compound, at glucokinase (GK) enzyme (1 uM compound), the activity at 1 µM came to 179%. Besides, at glucokinase (GK) enzyme (5 uM compound), the activity at 5 µM was found to be 215%. The activity at 10 µM at glucokinase (GK) enzyme (10 uM compound) was found to be 262%.

Consider “(S)-3-(4-(5-methyl-1,3,4-oxadiazol-2-yl)phenoxy)-5-((2-oxopyrrolidin-3-yl)oxy)-N-(thiazol-2-yl)benzamide [Example 70]”, for which the “% of GK activity wrt DMSO” value on glucokinase (GK) enzyme (0.1 uM compound) is 238.3%; on glucokinase (GK) enzyme (1 uM compound), 315.1%; at glucokinase (GK) enzyme (5 uM compound), 318.4%; at glucokinase (GK) enzyme (10 uM compound) it was 325.6%.

For the origin of these results see patent US8835469B2 (Cadila Healthcare Limited, priority 2009, dated 2014).
